Test results taken from patent publication US7294646B2, “Maxi-k channel blockers, methods of use and process for making the same” (Merck & Co. Inc., priority 2002, dated 2007).

Columns and labels:
[1] = target: T1, high-conductance calcium-activated potassium (Maxi-K) channels (Homo sapiens, UniProt Q12791); assay: Patch clamp recordings of Maxi-K channel currents in excised inside-out membrane patches; assay type: cell-based; conditions: 1 nM concentration applied to internal side of excised inside-out patch; held at -80 mV, steps to +50 mV
T1 construct: expressed in transfected cells; host or cells: CHO cells (α alone) or HEK293 cells (α and β1)
T1 sequence (Q12791 whole entry): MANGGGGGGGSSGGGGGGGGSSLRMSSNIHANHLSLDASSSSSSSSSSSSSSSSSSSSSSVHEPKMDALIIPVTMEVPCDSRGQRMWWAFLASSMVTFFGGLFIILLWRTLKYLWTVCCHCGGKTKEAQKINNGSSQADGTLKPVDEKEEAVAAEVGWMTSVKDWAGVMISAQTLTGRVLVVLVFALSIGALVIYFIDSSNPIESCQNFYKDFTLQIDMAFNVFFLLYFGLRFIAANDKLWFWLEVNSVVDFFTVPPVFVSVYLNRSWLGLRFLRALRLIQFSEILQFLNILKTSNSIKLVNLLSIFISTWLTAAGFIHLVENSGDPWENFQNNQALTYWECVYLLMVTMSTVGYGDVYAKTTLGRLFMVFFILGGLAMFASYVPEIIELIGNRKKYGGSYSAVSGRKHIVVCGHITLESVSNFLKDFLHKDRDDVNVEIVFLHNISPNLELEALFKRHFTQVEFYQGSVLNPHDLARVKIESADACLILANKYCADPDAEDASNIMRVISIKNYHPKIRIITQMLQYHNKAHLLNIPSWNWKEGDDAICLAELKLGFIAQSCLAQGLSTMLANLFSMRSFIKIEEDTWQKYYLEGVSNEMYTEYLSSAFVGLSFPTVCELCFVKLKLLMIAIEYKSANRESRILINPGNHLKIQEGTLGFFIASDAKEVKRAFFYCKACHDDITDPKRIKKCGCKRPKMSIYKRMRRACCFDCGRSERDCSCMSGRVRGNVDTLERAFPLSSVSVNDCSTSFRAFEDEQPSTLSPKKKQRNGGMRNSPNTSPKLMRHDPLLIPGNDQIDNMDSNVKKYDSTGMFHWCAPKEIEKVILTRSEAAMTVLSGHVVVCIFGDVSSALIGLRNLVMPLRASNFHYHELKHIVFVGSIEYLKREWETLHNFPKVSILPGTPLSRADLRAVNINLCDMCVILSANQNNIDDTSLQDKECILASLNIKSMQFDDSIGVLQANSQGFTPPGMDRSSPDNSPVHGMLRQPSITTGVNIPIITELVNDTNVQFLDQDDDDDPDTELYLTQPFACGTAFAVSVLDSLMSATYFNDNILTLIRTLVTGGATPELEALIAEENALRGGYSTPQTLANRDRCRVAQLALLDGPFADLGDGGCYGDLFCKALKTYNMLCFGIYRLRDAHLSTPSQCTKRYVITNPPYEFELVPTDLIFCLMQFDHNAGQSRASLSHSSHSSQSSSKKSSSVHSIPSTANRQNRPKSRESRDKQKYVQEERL
Text: Electrophysiological Assays of Compound Effects on High-conductance Calcium-activated Potassium Channels
Patch clamp recordings of currents flowing through high-conductance calcium-activated potassium (Maxi-K) channels were made from membrane patches excised from CHO cells constitutively expressing the α-subunit of the Maxi-K channel or HEK293 cells constitutively expressing both α- and β1-subunits using conventional techniques (Hamill et al., 1981, Pflügers Archiv. 391, 85-100) at room temperature. Glass capillary tubing (Garner #7052) was pulled in two stages to yield micropipettes with tip diameters of approximately 1-2 microns. Pipettes were typically filled with solutions containing (mM): 150 KCl, 10 Hepes (4-(2-hydroxyethyl)-1-piperazine […]), 1 Mg, 0.01 Ca, and adjusted to pH 7.20 with 3.7 mM KOH. After forming a high resistance (>10^9 ohms) seal between the plasma membrane and the pipette, the pipette was withdrawn from the cell, forming an excised inside-out membrane patch. […]
The effects of the compounds of the present invention on Maxi-K channels were examined in excised inside-out membrane patches. […] The fraction of channels blocked in each experiment was calculated from the reduction in peak current caused by application of the specified compound to the internal side of the membrane patch. […]

[2] = target: T2, Maxi-K channel (alpha and beta1 subunits) (Homo sapiens, UniProt Q12791); assay: FRET (VIPR) membrane potential assay in HEK-293 cells transfected with alpha and beta1 subunits of the maxi-K channel; assay type: cell-based
T2 construct: expressed in transfected cells
T2 sequence (Q12791 whole entry): as above
T2 sequence (Q16558 whole entry partner): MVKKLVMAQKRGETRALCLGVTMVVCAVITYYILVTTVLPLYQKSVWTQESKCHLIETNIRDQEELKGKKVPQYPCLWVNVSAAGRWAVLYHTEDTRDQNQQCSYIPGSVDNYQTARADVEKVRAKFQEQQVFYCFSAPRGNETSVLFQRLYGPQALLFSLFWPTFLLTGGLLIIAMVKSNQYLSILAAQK
Description: The identification of inhibitors of the Maxi-K channel is based on the ability of expressed Maxi-K channels to set cellular resting potential after transfection of both alpha and beta1 subunits of the channel in HEK-293 cells and after being incubated with potassium channel blockers that selectively eliminate the endogenous potassium conductances of HEK-293 cells. In the absence of Maxi-K channel inhibitors, the transfected HEK-293 cells display a hyperpolarized membrane potential, negative inside, close to EK (−80 mV) which is a consequence of the activity of Maxi-K channels. Blockade of the Maxi-K channel by incubation with Maxi-K channel blockers will cause cell depolarization. Changes in membrane potential can be determined with voltage-sensitive fluorescence resonance energy transfer (FRET) dye pairs that use two components, a donor coumarin (CC2DMPE) and an acceptor oxanol (DiSBAC2(3)).
Oxanol is a lipophilic anion and distributes across the membrane according to membrane potential. Under normal conditions, when the inside of the cell is negative with respect to the outside, oxanol is accumulated at the outer leaflet of the membrane and excitation of coumarin will cause FRET to occur. Conditions that lead to membrane depolarization will cause the oxanol to redistribute to the inside of the cell, and, as a consequence, a decrease in FRET. […]

[3] = system: Normotensive Dutch Belted rabbits; assay: Intraocular pressure (IOP) measurements in rabbits; assay type: in vivo, rabbit; conditions: for reduction of IOP: 25 μl, normal Dutch Belted rabbits; for ocular hypotensive response (significance): all doses (0.5, 0.1 and 0.01%); for ocular hypotensive response (significance) / contralateral effect on IOP (fellow eye): topical, Dutch Belted rabbits; for contralateral effect on IOP (fellow eye): all doses tested (0.5, 0.1 and 0.01%)
Description: Intraocular Pressure (IOP) Measurements in Rabbits
Normotensive Dutch Belted rabbits (2.3 kg) of either sex were maintained on a 12-hour light/dark cycle during these experiments. Intraocular pressure (IOP) was measured using a calibrated pneumatonometer (Alcon Applanation Pneumatonograph), and results expressed in millimeters of mercury (mmHg). Before tonometry, one drop of 0.05% proparacaine was applied to the corneas to minimize any discomfort to the animal. Two base-line (control) readings were taken at (−0.5 and 0 hr.) after which Compounds I, Ia or II were administered topically (unilaterally applied into the conjunctival sac) in a 25 μl volume with the contralateral (fellow) eye receiving an equal volume of vehicle. A masked design was utilized, where the person involved in drug administration and measurement of IOP had no knowledge of the solutions' contents. Subsequently, IOP measurements were taken at 0.5, 1, 2, 3, 4, 5 and 6 hr after topical applications of drug. At the end of each day's measurements, stability of the tonometer was determined using the calibrator/verifier.

[4] = 0.01% unilateral topical application
[5] = 0.1% unilateral topical application
[6] = 0.5% unilateral topical application

SMILES | decrease in Maxi-K channel currents [1] | IC50 [2] | reduction of IOP [3, 4] | reduction of IOP [3, 5] | reduction of IOP [3, 6] | ocular hypotensive response (significance) [3] | contralateral effect on IOP (fellow eye) [3]
CC(C)C[C@@H](C(=O)O[C@H]1C[C@H]2Cc3c([nH]c4ccccc34)[C@]2(C)[C@@]2(C)CC[C@@]34O[C@@H](C(=O)C=C3[C@]12O)C(C)(C)O4)N(C)C [Compound Ia] | 88% | ≤ 100 nM | 3 mmHg | 3.3 mmHg | 3.7 mmHg | significant | significant contralateral effect
CC(C)[C@@H](C(=O)O[C@H]1C[C@H]2Cc3c([nH]c4ccccc34)[C@]2(C)[C@@]2(C)CC[C@@]34O[C@@H](C(=O)C=C3[C@]12O)C(C)(C)O4)N(C)C [Ib] |  | ≤ 100 nM | 3 mmHg | 3.3 mmHg | 3.7 mmHg | significant | significant contralateral effect
